Data set [1] deals with Rattus norvegicus. In words: Anti-inflammatory activity in Rattus norvegicus Wistar albino (rat) assessed as inhibition of carrageenan-induced paw edema at 20 mg/kg, po administered 30 min before carrageenan challenge measured after 2 hr relative to control. In kind it is functional.
In data set [2] the test system is Mus musculus. In words: Analgesic activity in Mus musculus Swiss albino (mouse) assessed as increase in reaction time at 10 mg/kg, po after 0.5 hr by tail-flick method relative to control. In kind it is functional. For orientation: Thermal pain tests record how soon the animal reacts.
Data set [3] concerns Rattus norvegicus. Nature of the data set: Anti-inflammatory activity in Rattus norvegicus Wistar albino (rat) assessed as inhibition of carrageenan-induced paw edema at 20 mg/kg, po administered 30 min before carrageenan challenge measured after 2.5 hr relative to control. The data set is classed as functional. On the technique in general: In the carrageenan paw model, swelling and tenderness develop within hours.

The subject of data set [4] is Rattus norvegicus. Nature of the data set: Anti-inflammatory activity in Rattus norvegicus Wistar albino (rat) assessed as inhibition of carrageenan-induced paw edema at 20 mg/kg, po administered 30 min before carrageenan challenge measured after 0.5 hr relative to control. The data set is classed as functional.
For data set [5], the system named is Mus musculus. Nature of the data set: Analgesic activity in Mus musculus Swiss albino (mouse) assessed as increase in reaction time at 10 mg/kg, po after 1 hr by tail-flick method relative to control. In kind it is functional.
Data set [6] relates to Mus musculus. Nature of the data set: Analgesic activity in Mus musculus Swiss albino (mouse) assessed as increase in reaction time at 10 mg/kg, po after 1.5 hr by tail-flick method relative to control. The data set is classed as functional.
For data set [7], the system named is Rattus norvegicus. Nature of the data set: Ulcerogenic activity in Rattus norvegicus Wistar albino (rat) assessed as ulcer index at 200 mg/kg, po after 17 hr. In kind it is toxicity, organism-based. More on the design: dose 200 mg/kg, route oral. Conditions: in vivo.
Data set [8] deals with Rattus norvegicus. In words: Anti-inflammatory activity in Rattus norvegicus Wistar albino (rat) assessed as inhibition of carrageenan-induced paw edema at 20 mg/kg, po administered 30 min before carrageenan challenge measured after 3 hr relative to control. The data set is classed as functional.
Data set [9] deals with Rattus norvegicus. Nature of the data set: Anti-inflammatory activity in Rattus norvegicus Wistar albino (rat) assessed as inhibition of carrageenan-induced paw edema at 20 mg/kg, po administered 30 min before carrageenan challenge measured after 1.5 hr relative to control. The data set is classed as functional.
The subject of data set [10] is Rattus norvegicus. In words: Anti-inflammatory activity in Rattus norvegicus Wistar albino (rat) assessed as inhibition of carrageenan-induced paw edema at 20 mg/kg, po administered 30 min before carrageenan challenge measured after 1 hr relative to control. In kind it is functional.
Data set [11] relates to Mus musculus. Nature of the data set: Analgesic activity in po dosed Mus musculus Swiss albino (mouse) assessed as increase in reaction time after 1.5 hr by tail-flick method relative to control. The data set is classed as functional.
The subject of data set [12] is Radical scavenging activity. In words: Antioxidant activity assessed as DPPH free radical scavenging activity at 100 ug/ml after 30 min. The data set is classed as functional. A general note: The DPPH test is a chemical assay of radical scavenging.
In data set [13] the test system is Mus musculus. Nature of the data set: Analgesic activity in po dosed Mus musculus Swiss albino (mouse) assessed as increase in reaction time after 0.5 hr by tail-flick method relative to control. In kind it is functional.
The subject of data set [14] is Mus musculus. In words: Analgesic activity in po dosed Mus musculus Swiss albino (mouse) assessed as increase in reaction time after 1 hr by tail-flick method relative to control. The data set is classed as functional.
The nature of data set [15]: Antioxidant activity assessed as hydroxyl radical scavenging activity at 80 ug/ml after 4 hr. The data set is classed as functional.
Data set [16] in a line: Antioxidant activity assessed as nitric oxide radical scavenging activity at 40 ug/ml after 150 min by Griess Illosvoy reaction. The data set is classed as functional.
Data set [17] can be described thus: Antioxidant activity assessed as nitric oxide radical scavenging activity at 20 ug/ml after 150 min by Griess Illosvoy reaction. In kind it is functional.
Data set [18] can be described thus: Antioxidant activity assessed as nitric oxide radical scavenging activity at 60 ug/ml after 150 min by Griess Illosvoy reaction. In kind it is functional.
The nature of data set [19]: Antioxidant activity assessed as superoxide radical scavenging activity at 100 ug/ml after 5 min by NBT reduction assay. The data set is classed as functional.
The subject of data set [20] is Escherichia coli. Nature of the data set: Antibacterial activity against Escherichia coli by well diffusion method. In kind it is functional, organism-based.
Data set [21] has as its system Aspergillus. Nature of the data set: Antifungal activity against Aspergillus by well diffusion method. In kind it is functional, organism-based.
Data set [22] can be described thus: Antioxidant activity assessed as superoxide radical scavenging activity at 40 ug/ml after 5 min by NBT reduction assay. The data set is classed as functional.
The nature of data set [23]: Antioxidant activity assessed as superoxide radical scavenging activity at 80 ug/ml after 5 min by NBT reduction assay. In kind it is functional.
The nature of data set [24]: Antioxidant activity assessed as hydroxyl radical scavenging activity at 20 ug/ml after 4 hr. In kind it is functional.
Data set [25] in a line: Antioxidant activity assessed as superoxide radical scavenging activity at 20 ug/ml after 5 min by NBT reduction assay. In kind it is functional.
The nature of data set [26]: Antioxidant activity assessed as hydroxyl radical scavenging activity at 100 ug/ml after 4 hr. The data set is classed as functional.
For data set [27], the system named is Rattus norvegicus. Nature of the data set: Ulcerogenic activity in Rattus norvegicus Wistar albino (rat) assessed as ulcer index at equimolar dose of relative to 200 mg/kg of ibuprofen, po after 17 hr. Conditions: in vivo. More on the design: dose 200 mg/kg, route oral. In kind it is toxicity, organism-based.
Data set [28] in a line: Antioxidant activity assessed as nitric oxide radical scavenging activity at 100 ug/ml after 150 min by Griess Illosvoy reaction. In kind it is functional.
Data set [29] in a line: Antioxidant activity assessed as superoxide radical scavenging activity at 60 ug/ml after 5 min by NBT reduction assay. In kind it is functional.
Data set [30] can be described thus: Antioxidant activity assessed as hydroxyl radical scavenging activity at 60 ug/ml after 4 hr. In kind it is functional.
Data set [31] in a line: Antioxidant activity assessed as nitric oxide radical scavenging activity at 80 ug/ml after 150 min by Griess Illosvoy reaction. In kind it is functional.
Data set [32] is described as follows: Antioxidant activity assessed as hydroxyl radical scavenging activity at 40 ug/ml after 4 hr. In kind it is functional.
The subject of data set [33] is Staphylococcus aureus. Nature of the data set: Antibacterial activity against Staphylococcus aureus by well diffusion method. The data set is classed as functional, organism-based.

The source made the active and inactive calls. No cut-off for these calls is given here.

As a reminder, the inhibition in vivo is the percentage by which the read-out fell short of the control. In the case of `CC(C)Cc1ccc(C(C)C(=O)O)cc1` (stereo not drawn) [IBUPROFEN], the inhibition in vivo at 20 mg/kg was 36% in data set [1]; 39% in data set [3]; 20% in [4]; 42% in data set [8]; 25% in data set [9]; 18% in [10]. Further, the Activity came out at 11.73% in data set [2], 22.53% in data set [5] and 30.04% in [6]. In [7], the UI is recorded as 29.37.
The term inhibition denotes how much of the control response was suppressed. For the molecule `CCc1nn2c(C(C)c3ccc(CC(C)C)cc3)nnc2s1` (stereo not drawn), the inhibition in vivo at 20 mg/kg in data set [1] was 45%; in data set [3], 44%; in data set [4], 5%; in data set [8], 55%; in [9], 49%; in data set [10], 22%. Also, the results for the Activity in data set [11], in [13] and in data set [14] were 30.06%, 7.18% and 16.33%, respectively. The inhibition in data set [12] is 5.61%.
`CCCc1nn2c(C(C)c3ccc(CC(C)C)cc3)nnc2s1` (stereo not drawn): the inhibition in vivo at 20 mg/kg in data set [1] turned out to be 28%; in [3], 31%; in data set [4] it was 10%; in [8], 34%; in [9] it was 24%; in data set [10], 15%. Also, the inhibition in [15] stood at 56.4%; in [12], 77.9%; in data set [16], 26.7%; in [17] it was 14.3%; in data set [18] it was 38.3%; in data set [19], 58.6%. Besides, the inhibition in data set [22] amounted to 36.4%; in data set [23], 53%; in data set [24] it was 26.1%; in data set [25], 24.5%; in [26], 62.4%; in data set [28] it was 52.6%. The inhibition in data set [29] is 42.4%; in [30], 44.2%; in data set [31] it was 46.7%; in [32], 38.7%. In addition, the result in data set [20], in data set [21] and in data set [33] was inactive. Moreover, in data set [27], the UI was 8.54.
In the case of `CC(C)Cc1ccc(C(C)c2nnc3sc(-c4ccccc4Cl)nn23)cc1` (stereo not drawn), the inhibition in vivo at 20 mg/kg in data set [1] was 59%; in data set [3], 58%; in data set [4], 64%; in data set [8] it was 59%; in [9], 57%; in data set [10], 43%. The Activity in data set [11] is 78.2%; in data set [13], 19.23%; in data set [14] it was 39.74%. Besides, the inhibition in data set [12] came to 4.46%.
As for `CC(C)Cc1ccc(C(C)c2nnc3sc(-c4ccc([N+](=O)[O-])cc4Cl)nn23)cc1` (stereo not drawn), the inhibition in vivo at 20 mg/kg in [1] worked out at 67%; in data set [3] it was 67%; in [8] it was 69%; in [9], 59%; in data set [10], 4%. In addition, the figures for the Activity in data set [11], in data set [13] and in data set [14] were 41.61%, 17.34% and 31.79%, respectively. In addition, the inhibition in data set [12] was 1.71%.
Take `O=C(O)Cc1ccccc1Nc1c(Cl)cccc1Cl` [DICLOFENAC]: the inhibition in vivo at 20 mg/kg in data set [1] is 76%; in [3], 73%; in [4], 82%; in data set [8], 75%; in data set [9] it was 80%; in [10], 65%.
As to `Cc1cc(C(C)(C)C)c(O)c(C(C)(C)C)c1`, the inhibition in [12] came to 84.8%; in [19] it was 72.5%; in [26], 68.3%; in [28] it was 62.2%.
In the case of `CC(C)=CCN1CC[C@@]2(C)c3cc(O)ccc3C[C@@H]1[C@@H]2C` (racemic), the Activity in [2] was determined as 20.44%; in [5], 40.33%; in data set [6], 77.34%.
As for `Cc1nn2c(C(C)c3ccc(CC(C)C)cc3)nnc2s1` (stereo not drawn), the inhibition in vivo at 20 mg/kg is 58% in data set [1]; 56% in data set [3]; 64% in [4]; 62% in data set [8]; 62% in data set [9]; 43% in data set [10]. The figures for the Activity in data set [11], in [13] and in data set [14] were 42.66%, 26.66% and 32%, respectively. In data set [12], the inhibition is 7.9%.

The values above are taken from ChEMBL document CHEMBL3044588, “Microwave-mediated synthesis of triazolothiadiazoles as anti-inflammatory, analgesic, and anti-oxidant agents” (Med Chem Res, 2012).
